From patent publication US12121510B2 (Cedars-Sinai Medical Center, priority 2016, dated 2024)
Like-named read-outs stand apart in the source and are kept apart here. Values belong to the molecule of their own block, whether it stands above or below them.

Key:
[1] = tested on: Ramos, a B-cell lymphoma, cultured as 3-D spheroids; assay: Cell viability IC50 in 3-D spheroids; type: cell-based, human; conditions: for IC50: Homo sapiens, Ramos 3-D spheroids, single agent
Excerpt: (§1) Exemplary Embodiments are generally performed as follows, unless otherwise noted. Simvastatin is purchased from Ark Pharm, Inc. (Arlington Heights, IL). Cisplatin (CIS) is purchased from MedKoo Biosciences, Inc. (Chapel Hill, NC). Dihydroartemisinin is purchased from TCI America (Portland, OR). All other chemicals and reagents are purchased from standard sources such as Sigma-Aldrich and/or VWR and are of highest quality available. Puromycin dihydrochloride was purchased from Alfa Aesar (Tewksbury, MA). Deionized water ([…]) used for making solutions is obtained from Milli-Q Direct Ultrapure Water System from Millipore (Billerica, MA, USA). All intermediates are characterized by 1H NMR and mass analysis and the purity of compounds are analyzed by HPLC. 1H NMR data are collected on Bruker 400 MHz spectrometers using standard parameters; chemical shifts are reported in ppm (δ) in reference to residual non-deuterated solvent. ESI mass spectroscopy analysis is performed using a Thermo Fisher LTQ Orbitrap Elite system. IC50 is the half maximal inhibitory concentration and determined is determined by crystal violet assay unless otherwise noted.
Cancer cells were Ramos, a B-cell lymphoma, cultured as 3-D spheroids, cultured according to their standard culturing conditions.

22Rv1 = assay: Cancer cell growth IC50 (crystal violet); type: cell-based, human; conditions: Example 13, 72 h
Excerpt: as §1
(§2) The crystal violet assay is performed as follows, unless otherwise noted. Cell lines are supplemented with RPMI 1640 medium, 10% fetal bovine serum, 1% PenStrep, and placed in a humidified atmosphere containing 5% CO2 at 37° C. 5,000 cells/well renal cancer cells and 10,000 cells/well lymphoma cells are seeded in 96 well plates in 100 microliter medium/per well for 24 h. […] Renal cancer cells are fixed with 3.7% paraformaldehyde for 15 minutes and are stained with Crystal violet solution (0.5% in 25% methanol) for 30 minutes. After rinsing with water cell layers are dried and decolorized with Sorenson citrate with shaking for 20 minutes. Light absorption of the extracted supernatant is read at 595 nm. Lymphoma cell growth was evaluated using MTT and cells are incubated for 4 hours. 100 microliters of isopropanol is added, and the extracted supernatant fraction is read at absorption maximum of 595 nm. […]

A549 or A549/DDP cells = assay: CIS IC50 with constant DZ-SIM ester or amide, Crystal Violet assay; type: cell-based, human; conditions: 72 h
Description: Cell proliferation is determined by a Crystal Violet assay. The data represent the mean+/−SEM for two assays done in quadruplicate.

NKPC-961 = assay: Sensitization of pancreatic cancer cells to CIS and GEM; type: cell-based, mouse
Excerpt: GEM (or PAC) alone are compared to a combination with SIM, or a combination with DZ-SIM.

Namalwa = assay: Lymphoma cell growth IC50 (MTT); type: cell-based, human
Excerpt: as §1
(§3) The crystal violet assay is performed as follows, unless otherwise noted. Cell lines are supplemented with RPMI 1640 medium, 10% fetal bovine serum, 1% PenStrep, and placed in a humidified atmosphere containing 5% CO2 at 37° C. 5,000 cells/well renal cancer cells and 10,000 cells/well lymphoma cells are seeded in 96 well plates in 100 microliter medium/per well for 24 h. […] Renal cancer cells are fixed with 3.7% paraformaldehyde for 15 minutes and are stained with Crystal violet solution (0.5% in 25% methanol) for 30 minutes. After rinsing with water cell layers are dried and decolorized with Sorenson citrate with shaking for 20 minutes. Light absorption of the extracted supernatant is read at 595 nm. Lymphoma cell growth was evaluated using MTT and cells are incubated for 4 hours. 100 microliters of isopropanol is added, and the extracted supernatant fraction is read at absorption maximum of 595 nm.
(§4) Standard cell culture conditions typically are RPMI 1640 medium, 10% fetal bovine serum, 1% PenStrep, and are performed in a humidified atmosphere containing 5% CO2 at 37° C. Generally, 5,000 cells/well-10,000 cells/well are seeded in 96 well plates in 100 microliter medium/per well for 24 h, or as described in Example 16, unless otherwise noted. Certain cells require specialized media, growth factors, antibiotics, or culture condition adjustments, as will be apparent to a person of ordinary skill in the art.
(§5) Cell lines are cultured as follows. […] 5,000 cells/well renal cancer cells and 10,000 cells/well lymphoma cells are seeded in 96 well plates in 100 microliter medium/per well for 24 h. […] Renal cancer cells are fixed with 3.7% paraformaldehyde for 15 minutes and are stained with Crystal violet solution (0.5% in 25% methanol) for 30 minutes. After rinsing with water cell layers are dried and decolorized with Sorenson citrate with shaking for 20 minutes. Light absorption of the extracted supernatant is read at 595 nm. Lymphoma cell growth is evaluated using MTT and cells are incubated for 4 hours. 100 microliters of isopropanol is added, and the extracted supernatant fraction is read at absorption maximum of 595 nm.

Ramos = assay: Lymphoma cell growth IC50 (MTT); type: cell-based, human; conditions: Example 13, 72 h, read-out: IC50
Excerpt: as §1, §3, §4, §5

Daudi = assay: Lymphoma cell growth IC50 (MTT); type: cell-based, human; conditions: Example 13, 72 h, read-out: IC50
Excerpt: as §1, §3, §4, §5

Raji = assay: Lymphoma cell growth IC50 (MTT); type: cell-based, human; conditions: Example 13, 72 h, read-out: IC50
Excerpt: as §1, §3, §4, §5

CTC 752-S-1 = assay: Circulating tumor cell growth IC50 / sensitization; type: cell-based, human; conditions: for IC50: Homo sapiens
Excerpt: as §1, §4
Pancreatic cancer cells are cultured for 72 hours in vitro and exposed to the conventional chemotherapeutic drugs Gemcitabine (GEM) and Paclitaxel (PAC), known to inhibit pancreatic cancer growth in patients. GEM (or PAC) alone are compared to a combination with SIM, or a combination with DZ-SIM. […] Representative results are illustrated in the graphs in FIG. 3.
Cells are cultured according to their standard culturing conditions, and IC50s are determined as described herein-above.
Representative results of the determined IC50s are shown in the table below for the indicated cancer cells cultured in vitro, including CTCs (C752-S-1), B-Cell Lymphoma (Namalwa), prostate cancer cells (C4-2B), and renal cancer cells (Caki-1). The cells are cultured according to their standard culturing conditions, and IC50s are determined as described herein-above.

PC3M = assay: Cancer cell growth IC50 (crystal violet); type: cell-based; conditions: Example 13, 72 h
Excerpt: as §1, §3, §4

C4-2 = assay: Cancer cell growth IC50 (crystal violet); type: cell-based; conditions: Example 13, C42, 72 h
Excerpt: as §1, §3, §4

C4-2B = assay: Cancer cell growth IC50 (crystal violet); type: cell-based
Excerpt: as §1, §3, §4

PC3 = assay: Cancer cell growth IC50 (crystal violet); type: cell-based
Excerpt: as §1, §3, §4

LNCaP = assay: Cancer cell growth IC50 (crystal violet); type: cell-based; conditions: Example 13, 72 h
Excerpt: as §1, §3, §4

MCF-7 = assay: Cancer cell growth IC50 (crystal violet); type: cell-based
Excerpt: as §1, §3, §4

ARCaP-E = assay: Cancer cell growth IC50 (crystal violet); type: cell-based; conditions: Example 13, 72 h
Excerpt: as §1, §3, §4

U87 = assay: Cancer cell growth IC50 (crystal violet); type: cell-based; conditions: Example 13, 72 h
Excerpt: as §1, §3, §4

MIAPaCa II = assay: Cancer cell growth IC50 / sensitization (crystal violet); type: cell-based
Excerpt: as §1, §2

22Rv1 tumors = assay: Prostate tumor xenograft growth; type: in vivo, mice; conditions: IP twice per week, 37 days; SIM 1.1 mg/kg, DZ-SIM 5.5 mg/kg, DT 8 mg/kg
Description: A human prostate tumor xenograft model, 22Rv1 in immune compromised mice, is employed as follows. 1×10^6 freshly harvested cells of a cultured human prostate carcinoma cell line, 22Rv1, are inoculated s.q. in mice. Mice bearing 22Rv1 tumors (10 tumors/group) are randomized into 7 groups on day-1, and administered drugs by IP (intraperitoneally) at the next day (day-2), and subsequently twice per week, using the following drugs and dosages: a control/vehicle (V, i.e. no drug), DZ (5 μM or 3.9 mg/kg, calculated based on the body weight of mice which averaged 20 grams), SIM (5 μM or 1.1 mg/kg), DZ-SIM (5 μM or 5.5 mg/kg), docetaxel (DT, 8 mg/kg), SIM+DT (drug doses as indicated), and DZ-SIM+DT (drug doses as indicated). Administration is continued for a total of 37 days, and tumor volumes are measured at the indicated times (see FIG. 4). […] Thus therapeutically resistant prostate tumors can be rendered sensitive by DZ-SIM but not SIM.

Caki-1 = assay: Renal cancer cell growth IC50 (crystal violet); type: cell-based, human; conditions: Homo sapiens, Caki-1, read-out: IC50
Excerpt: as §1, §3, §4, §5

IC50 (Caki-1; Example 23): 0.74 µM
IC50 (Namalwa; Homo sapiens, Example 23, read-out: IC50): 0.969 µM
IC50 (C4-2B; Example 23): 0.249 µM
SMILES: COc1ccc(C[C@H](N)C(=O)N[C@H]2[C@@H](O)[C@H](n3cnc4c(N(C)C)ncnc43)O[C@@H]2CO)cc1 [Puromycin]
IC50 (CTC 752-S-1; Example 23, CTC 752-S-1): 4.87 µM

IC50 ([1]; 72 h): 13 µM
IC50 (22Rv1; Homo sapiens): 3.52 µM
IC50 (Namalwa; Homo sapiens, Example 13, 72 h, read-out: IC50): 13.4 µM
IC50 (Ramos; Homo sapiens): 13 µM
IC50 (Daudi; Homo sapiens): 15 µM
IC50 (Raji; Homo sapiens): 32.5 µM
IC50 (PC3M; Homo sapiens, PC-3M): 0.248 µM
IC50 (C4-2; C4-2): 7.73 µM
IC50 (C4-2B; Example 13, 72 h): 1.88 µM
IC50 (PC3; Homo sapiens, PC-3, Example 13, 72 h): 0.991 µM
IC50 (LNCaP; Homo sapiens): 3.76 µM
IC50 (MCF-7; Homo sapiens, MCF7, Example 13, 72 h): 2.69 µM
IC50 (ARCaP-E): 5.61 µM
IC50 (U87; Homo sapiens, U-87 MG): 0.506 µM
SMILES: CCC(C)(C)C(=O)O[C@H]1C[C@@H](C)C=C2C=C[C@H](C)[C@H](CC[C@@H]3C[C@@H](O)CC(=O)O3)[C@H]21 [SIM, Simvastatin]
IC50 (MIAPaCa II; MIA PaCa-2, Example 13, 72 h): 0.592 µM

Continued, molecule first:

SMILES: CCC(C)(C)C(=O)O[C@H]1C[C@@H](C)C=C2C=C[C@H](C)[C@H](CC[C@@H]3C[C@@H](OC(=O)CCCCCN4/C(=C/C=C5\CCCC(/C=C/C6=[N+](CCCCS(=O)(=O)[O-])c7ccccc7C6(C)C)=C5Cl)C(C)(C)c5ccccc54)CC(=O)O3)[C@H]21 [DZ-SIM ester]
IC50 ([1]; 72 h): 2.74 µM
Increase of CIS cytotoxicity ([1]; Ramos, 2 μM DZ-SIM ester): over 190 fold
Potency relative to SIM ([1]; Ramos, 72 h): 5 fold
IC50 (22Rv1): 4.9 µM
Reduction of the IC50 of CIS by combination (A549 or A549/DDP cells): up to 200 fold
Sensitization of cancer cells to CIS (A549 or A549/DDP cells; combination with CIS): sensitize cancer cells to CIS
Sensitization to CIS and GEM (NKPC-961): about equally sensitize
IC50 (Namalwa; Example 13, 72 h, read-out: IC50): 7.15 µM
IC50 (Ramos): 2.74 µM
IC50 (Daudi): 5.61 µM
IC50 (Raji): 8.8 µM
Sensitization to GEM or PAC (CTC 752-S-1; CTC-752-S-1 human pancreatic cancer cells, 72 hours): more effective sensitizer to GEM or PAC than SIM
IC50 (PC3M): 5.19 µM
IC50 (C4-2): 4.26 µM
IC50 (C4-2B; Example 13, 72 h): 1.81 µM
IC50 (PC3; Example 13, 72 h): 7.15 µM
IC50 (LNCaP): 1.79 µM
IC50 (MCF-7; Example 13, 72 h): 9.9 µM
IC50 (ARCaP-E): 4.76 µM
IC50 (U87): 1.32 µM
IC50 (MIAPaCa II; Example 13, 72 h): 2.12 µM
Growth of 22Rv1 tumors in vivo (tumor volume) (22Rv1 tumors): inhibited the growth of tumors in vivo

SMILES: C[C@@H]1CC[C@H]2[C@@H](C)C(=O)O[C@@H]3O[C@@]4(C)CC[C@@H]1[C@]32OO4 [ART, Artemisinin]
IC50 (Caki-1; Example 22): > 64 µM
IC50 (Namalwa; Homo sapiens, Example 22, read-out: IC50): > 64 µM
IC50 (CTC 752-S-1; Example 22, CTC 752-S-1, 3D cultured tumor spheroids): > 64 µM
IC50 (C4-2B; Example 22): 0.657 µM

SMILES: CC(=O)O[C@@]12CO[C@@H]1C[C@H](O)[C@@]1(C)C(=O)[C@H](O)C3=C(C)[C@@H](OC(=O)[C@H](O)[C@@H](NC(=O)OC(C)(C)C)c4ccccc4)C[C@@](O)([C@@H](OC(=O)c4ccccc4)[C@H]21)C3(C)C [DT, Docetaxel]
Growth of 22Rv1 tumors in vivo (tumor volume) (22Rv1 tumors): ineffective
